Patent US10005824B2, “Selective PYY compounds and uses thereof” (Novo Nordisk A/S, priority 2015, dated 2018)
pKi: −log10 of the molar value.

Key:
human Y2 receptor = biological target: T1, human Y2 receptor (Homo sapiens, UniProt P49146); assay: Scintillation proximity assay (SPA) receptor binding, Y2
T1 construct: expressed in transfected cells; host or cells: CHO-K1 (membrane preparation)
T1 sequence (P49146 1-381): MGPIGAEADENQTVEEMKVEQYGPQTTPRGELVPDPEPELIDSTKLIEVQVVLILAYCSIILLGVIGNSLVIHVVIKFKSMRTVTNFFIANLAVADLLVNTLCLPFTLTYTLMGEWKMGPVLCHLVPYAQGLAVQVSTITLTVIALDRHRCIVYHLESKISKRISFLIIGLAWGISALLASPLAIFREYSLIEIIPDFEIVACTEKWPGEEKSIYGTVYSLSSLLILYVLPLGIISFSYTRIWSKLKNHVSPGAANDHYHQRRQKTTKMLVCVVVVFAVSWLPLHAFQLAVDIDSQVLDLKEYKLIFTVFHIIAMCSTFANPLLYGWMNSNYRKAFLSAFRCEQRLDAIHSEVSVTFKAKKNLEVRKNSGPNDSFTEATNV
Description: (§1) The purpose of this example is to test the in vitro binding of the PYY compounds to the Y1, Y2, Y4 and Y5 receptor subtypes, respectively. The receptor binding affinity is a measure of affinity of a compound for the human Y1, Y2, Y4 and Y5 receptor subtypes, respectively.
(§2) Scintillation Proximity Assay (SPA)
(§3) NPY-Receptor Expressing Cell Lines.
All cells were cultured at +37° C. in a humidified atmosphere with 5% CO2. […] CHO-K1 cells stably expressing the human Y2 receptor (P49146, NPY2R_HUMAN, Uniprot) were cultured in DMEM F-12 with 10% FBS, 1% P/S, 150 μg/ml Hygromycin B and 10 μg/ml Puromycin antibiotic. CHO-K1 cells stably expressing the human Y4 receptor (P50391, NPY4R_HUMAN, Uniprot) were cultured in DMEM F-12 with 10% FBS, 1% P/S, 10 μg/ml Puromycin. HEK-293 cells stably expressing the human Y5 receptor (Q15761, NPY5R_HUMAN, Uniprot) were cultured in DMEM F-12 medium containing 10% FBS, 1% Penicillin-Streptomycin, 250 μg/ml G418 and 1 μg/ml puromycin. […]
(§4) Plates were sealed and incubated at +25° C. for 2 hours in a plate shaker set at 400 rpm and thereafter centrifuged at 1500 rpm for 10 minutes prior to reading of luminescence on a microplate scintillation and luminescence counter. […] Displacement of radioligand was measured as reduction in luminescence and IC50 values were calculated by nonlinear regression analysis of sigmoidal dose-response curves.

human Y1 receptor = biological target: T2, human Y1 receptor (Homo sapiens, UniProt P25929); assay: Scintillation proximity assay (SPA) receptor binding, Y1
T2 construct: expressed in transfected cells; host or cells: BHK-21 clone 6-482-8, IPTG-induced (membrane preparation)
T2 sequence (P25929 1-384): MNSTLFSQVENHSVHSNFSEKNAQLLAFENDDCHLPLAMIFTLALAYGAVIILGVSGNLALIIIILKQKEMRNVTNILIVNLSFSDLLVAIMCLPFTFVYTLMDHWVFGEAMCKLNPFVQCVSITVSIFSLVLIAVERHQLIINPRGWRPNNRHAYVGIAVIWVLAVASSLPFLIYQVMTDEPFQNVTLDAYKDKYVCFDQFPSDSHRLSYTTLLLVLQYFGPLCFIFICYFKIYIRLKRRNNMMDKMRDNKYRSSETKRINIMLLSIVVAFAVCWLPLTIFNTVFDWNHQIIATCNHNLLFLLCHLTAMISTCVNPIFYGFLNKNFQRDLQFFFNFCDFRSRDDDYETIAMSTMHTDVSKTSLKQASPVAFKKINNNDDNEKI
Description: as §1, §2, §3
(§5) All cells were cultured at +37° C. in a humidified atmosphere with 5% CO2. […] CHO-K1 cells stably expressing the human Y2 receptor (P49146, NPY2R_HUMAN, Uniprot) were cultured in DMEM F-12 with 10% FBS, 1% P/S, 150 μg/ml Hygromycin B and 10 μg/ml Puromycin antibiotic. CHO-K1 cells stably expressing the human Y4 receptor (P50391, NPY4R_HUMAN, Uniprot) were cultured in DMEM F-12 with 10% FBS, 1% P/S, 10 μg/ml Puromycin. HEK-293 cells stably expressing the human Y5 receptor (Q15761, NPY5R_HUMAN, Uniprot) were cultured in DMEM F-12 medium containing 10% FBS, 1% Penicillin-Streptomycin, 250 μg/ml G418 and 1 μg/ml puromycin.
(§6) The homogenate was centrifuged at 35000 g using an ultracentrifuge for 10 minutes at +4° C. and the supernatant was discarded and fresh homogenization buffer added. Homogenization of the pellet was repeated a total of three times.
(§7) Human Y receptor SPA binding assay were performed in white 96-well plates in a total volume of 200 μl per well.
as §4

human Y4 receptor = biological target: T3, human Y4 receptor (Homo sapiens, UniProt P50391); assay: Scintillation proximity assay (SPA) receptor binding, Y4; settings: Y4 Ki, membranes of CHO-K1 cells, [125I]-Pancreatic Polypeptide
T3 construct: expressed in transfected cells; host or cells: CHO-K1 (membrane preparation)
T3 sequence (P50391 whole entry): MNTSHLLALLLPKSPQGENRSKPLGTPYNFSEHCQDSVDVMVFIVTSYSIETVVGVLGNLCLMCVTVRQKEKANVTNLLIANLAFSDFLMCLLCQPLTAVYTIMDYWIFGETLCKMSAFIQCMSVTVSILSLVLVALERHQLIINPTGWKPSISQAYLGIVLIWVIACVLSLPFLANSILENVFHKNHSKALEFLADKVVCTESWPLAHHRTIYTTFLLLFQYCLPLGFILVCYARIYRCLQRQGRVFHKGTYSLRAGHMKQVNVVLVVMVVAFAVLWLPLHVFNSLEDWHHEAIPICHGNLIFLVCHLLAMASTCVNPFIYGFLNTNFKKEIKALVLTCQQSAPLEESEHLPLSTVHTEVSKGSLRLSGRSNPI
Description: as §1, §2, §3, §5, §6, §7, §4

[1] = Pharmacokinetic study in minipigs after i.v. administration; format: in vivo; settings: female, Göttingen, minipig, plasma, iv, 15 nmol/kg; read-out: Half-life (t½) (converted)
Excerpt: By terminal half-life is generally meant the period of time it takes to halve a certain plasma concentration, measured after the initial distribution phase.
After minimum 2 weeks of acclimatization two permanent central venous catheters were implemented in vena cava caudalis in each animal. After surgery the animals were in their normal individual pens during the pharmacokinetic experiments.
On day 1 the catheters are coupled to extension tubes, which will be removed at the end of day 1. […] Samples were kept on wet ice until centrifugation (10 min, 4° C., 1942 g).
Plasma concentration-time profiles was analysed by a non-compartmental pharmacokinetics analysis using Phoenix (Pharsight Inc., Mountain View, Calif., USA). Calculations were performed using individual concentration-time values from each animal.

Molecule `CC(C)CC(=O)N[C@@H](CCCNC(=N)N)C(=O)N1CCC[C@H]1C(=O)N[C@@H](CCC(=O)O)C(=O)N[C@@H](CCCCNC(=O)CC[C@H](NC(=O)CCCCCCCCCCCCCCCCC(=O)O)C(=O)O)C(=O)N1CCC[C@H]1C(=O)N[C@H](C(=O)N[C@@H](CCC(=O)O)C(=O)N[C@@H](CC(=O)O)C(=O)N[C@@H](C)C(=O)N[C@@H](CO)C(=O)N1CCC[C@H]1C(=O)N[C@@H](CCC(=O)O)C(=O)N[C@@H](CCC(=O)O)C(=O)N[C@@H](CC(C)C)C(=O)N[C@@H](CCC(N)=O)C(=O)N[C@@H](CCCNC(=N)N)C(=O)N[C@@H](Cc1ccc(O)cc1)C(=O)N[C@@H](Cc1ccc(O)cc1)C(=O)N[C@H](C(=O)N[C@@H](CO)C(=O)N[C@@H](CC(C)C)C(=O)N[C@@H](CCCNC(=N)N)C(=O)N[C@@H](Cc1c[nH]cn1)C(=O)N[C@@H](Cc1ccc(O)cc1)C(=O)N[C@@H](Cc1ccc(O)cc1)C(=O)N[C@@H](CC(N)=O)C(=O)N[C@@H](Cc1c[nH]c2ccccc12)C(=O)N[C@@H](CC(C)C)C(=O)N[C@H](C(=O)N[C@@H](CCCNC(=N)N)C(=O)N[C@@H](CCC(N)=O)C(=O)N[C@@H](CCCNC(=N)N)C(=O)N[C@@H](Cc1ccc(O)cc1)C(N)=O)[C@@H](C)O)C(C)C)[C@@H](C)O` [Compound 44, N{alpha-4}-(3-Methylbutanoyl)-N{Epsilon-7}-[(4S)-4-carboxy-4-(17-carboxy-heptadecanoylamino)butanoyl]-[Arg4,Lys7,Thr9,Gln18,Val22,Tyr28,Trp30,Leu31]hPYY(4-36)] has a pKi (human Y2 receptor) of 9.48 and a pKi (human Y1 receptor) of under 5.00.
`CC(C)CC(=O)N[C@@H](CCCNC(=N)N)C(=O)N1CCC[C@H]1C(=O)N[C@@H](CCC(=O)O)C(=O)N[C@@H](C)C(=O)N1CCC[C@H]1C(=O)NCC(=O)N[C@@H](CCCCNC(=O)CC[C@H](NC(=O)COCCOCCNC(=O)CC[C@H](NC(=O)CCCCCCCCCCCCCCCCC(=O)O)C(=O)O)C(=O)O)C(=O)N[C@@H](CC(=O)O)C(=O)N[C@@H](C)C(=O)N[C@@H](CO)C(=O)N1CCC[C@H]1C(=O)N[C@@H](CCC(=O)O)C(=O)N[C@@H](CCC(=O)O)C(=O)N[C@@H](CC(C)C)C(=O)N[C@@H](CCC(N)=O)C(=O)N[C@@H](CCCNC(=N)N)C(=O)N[C@@H](Cc1ccc(O)cc1)C(=O)N[C@@H](Cc1ccc(O)cc1)C(=O)N[C@@H](CCC(=O)O)C(=O)N[C@@H](CO)C(=O)N[C@@H](CC(C)C)C(=O)N[C@@H](CCCNC(=N)N)C(=O)N[C@@H](Cc1c[nH]cn1)C(=O)N[C@@H](Cc1ccc(O)cc1)C(=O)N[C@@H](Cc1ccc(O)cc1)C(=O)N[C@@H](CC(N)=O)C(=O)N[C@@H](Cc1c[nH]c2ccccc12)C(=O)N[C@@H](CC(C)C)C(=O)N[C@H](C(=O)N[C@@H](CCCNC(=N)N)C(=O)N[C@@H](CCC(N)=O)C(=O)N[C@@H](CCCNC(=N)N)C(=O)N[C@@H](Cc1ccc(O)cc1)C(N)=O)[C@@H](C)O` [Compound 50, N{alpha-4}-(3-Methylbutanoyl)-N{Epsilon-10}-[(4S)-4-carboxy-4-[[2-[2-[2-[[(4S)-4-carboxy-4-(17-carboxyheptadecanoylamino)butanoyl]amino]ethoxy]ethoxy]-acetyl]amino]butanoyl]-[Arg4,Lys10,Gln18,Glu22,Tyr28,Trp30,Leu31]-PYY(4-36)] showed a pKi (human Y1 receptor) of under 5.00, a pKi (human Y4 receptor) of under 5.00 and a half-life [1] of 94 h.
With `CC(C)CC(=O)N[C@@H](CCCNC(=N)N)C(=O)N1CCC[C@H]1C(=O)N[C@@H](CCC(=O)O)C(=O)N[C@@H](C)C(=O)N1CCC[C@H]1C(=O)N1CCC[C@H]1C(=O)N[C@@H](CCCCNC(=O)CC[C@H](NC(=O)COCCOCCNC(=O)CC[C@H](NC(=O)CCCCCCCCCCCCCCCS(=O)(=O)O)C(=O)O)C(=O)O)C(=O)N[C@@H](CC(=O)O)C(=O)N[C@@H](C)C(=O)N[C@@H](CO)C(=O)N1CCC[C@H]1C(=O)N[C@@H](CCC(=O)O)C(=O)N[C@@H](CCC(=O)O)C(=O)N[C@@H](CC(C)C)C(=O)N[C@@H](CCC(N)=O)C(=O)N[C@@H](CCCNC(=N)N)C(=O)N[C@@H](Cc1ccc(O)cc1)C(=O)N[C@@H](Cc1ccc(O)cc1)C(=O)N[C@@H](C)C(=O)N[C@@H](CO)C(=O)N[C@@H](CC(C)C)C(=O)N[C@@H](CCCNC(=N)N)C(=O)N[C@@H](Cc1c[nH]cn1)C(=O)N[C@@H](Cc1ccc(O)cc1)C(=O)N[C@@H](Cc1ccc(O)cc1)C(=O)N[C@@H](CC(N)=O)C(=O)N[C@@H](Cc1c[nH]c2ccccc12)C(=O)N[C@@H](CC(C)C)C(=O)N[C@H](C(=O)N[C@@H](CCCNC(=N)N)C(=O)N[C@@H](CCC(N)=O)C(=O)N[C@@H](CCCNC(=N)N)C(=O)N[C@@H](Cc1ccc(O)cc1)C(N)=O)[C@@H](C)O` [Compound 69, N{alpha-4}-(3-Methylbutanoyl)-N{Epsilon-10}-[(4S)-4-carboxy-4-[[2-[2-[2-[[(4S)-4-carboxy-4-(16-sulfohexadecanoylamino)butanoyl]amino]ethoxy]-ethoxy]acetyl]amino]butanoyl]-[Arg4,Pro9,Lys10,Gln18,Tyr28,Trp30,Leu31]-PYY-(4-36)] the pKi (human Y1 receptor) was under 5.00, the pKi (human Y4 receptor) was 5.25 and the half-life [1] was 64 h.
